According to patent US20250231185A1, “Coronavirus T Cell Epitopes, Megapools and Uses Thereof” (La Jolla Institute for Immunology, priority 2021, published 2025):

What follows are substances tested on CD4+ T cells (assay: Meta-analysis of published SARS-CoV-2 CD4 T cell epitope data curated in the IEDB (25 studies)). Conditions: CD4R (D) Megapool, non-spike antigens; dominant = recognized in 3 or more donors/studies.
Type: cell-based, human

Row | Substance | Dominant
1 | 2309 (SWFTALTQHGKEDLK) [compound 2309] | Yes (more dominant epitopes are defined by being recognized by 3 or more donors/different studies)
2 | 2295 (GAVILRGHLRIAGHHLGR) [compound 2295] | Yes (more dominant epitopes are defined by being recognized by 3 or more donors/different studies)
3 | 2329 (GMEVTPSGTWLTYTGAIKLD) [compound 2329] | Yes (more dominant epitopes are defined by being recognized by 3 or more donors/different studies)
4 | 2298 (IAGHHLGRCDIKDLP) [compound 2298] | Yes (more dominant epitopes are defined by being recognized by 3 or more donors/different studies)
5 | 2296 (LRGHLRIAGHHLGRC) [compound 2296] | Yes (more dominant epitopes are defined by being recognized by 3 or more donors/different studies)
6 | 2291 (CLVGLMWLSYFIASF) [compound 2291] | Yes (more dominant epitopes are defined by being recognized by 3 or more donors/different studies)
7 | 2312 (YYRRATRRIRGGDGK) [compound 2312] | Yes (more dominant epitopes are defined by being recognized by 3 or more donors/different studies)
8 | 2306 (LGASQRVAGDSGFAA) [compound 2306] | Yes (more dominant epitopes are defined by being recognized by 3 or more donors/different studies)
9 | 2305 (SYYKLGASQRVAGDS) [compound 2305] | Yes (more dominant epitopes are defined by being recognized by 3 or more donors/different studies)
10 | 2325 (LIRQGTDYKHWPQIA) [compound 2325] | Yes (more dominant epitopes are defined by being recognized by 3 or more donors/different studies)
11 | 2327 (WPQIAQFAPSASAFF) [compound 2327] | Yes (more dominant epitopes are defined by being recognized by 3 or more donors/different studies)
12 | 2345 (QEEVQELYSPIFLIV) [compound 2345] | Yes (more dominant epitopes are defined by being recognized by 3 or more donors/different studies)
13 | 2300 (IKDLPKEITVATSRT) [compound 2300] | Yes (more dominant epitopes are defined by being recognized by 3 or more donors/different studies)
14 | 2303 (SRTLSYYKLGASQRV) [compound 2303] | Yes (more dominant epitopes are defined by being recognized by 3 or more donors/different studies)

Same assay, conditions: CD4RE megapool peptides (non-spike SARS-CoV-2 CD4 epitopes); dominant = recognized by 3 or more donors/different studies

Row | Substance | Dominant
15 | 2634 (SYYKLGASQRVAGDS) [compound 2634] | Yes (more dominant epitopes are defined by being recognized by 3 or more donors/different studies)
16 | 2674 (QEEVQELYSPIFLIV) [compound 2674] | Yes (more dominant epitopes are defined by being recognized by 3 or more donors/different studies)
17 | 2623 (SELVIGAVILRGHLR) [compound 2623] | Yes (more dominant epitopes are defined by being recognized by 3 or more donors/different studies)
18 | 2635 (LGASQRVAGDSGFAA) [compound 2635] | Yes (more dominant epitopes are defined by being recognized by 3 or more donors/different studies)
19 | 2620 (CLVGLMWLSYFIASF) [compound 2620] | Yes (more dominant epitopes are defined by being recognized by 3 or more donors/different studies)
20 | 2656 (WPQIAQFAPSASAFF) [compound 2656] | Yes (more dominant epitopes are defined by being recognized by 3 or more donors/different studies)
21 | 2632 (SRTLSYYKLGASQRV) [compound 2632] | Yes (more dominant epitopes are defined by being recognized by 3 or more donors/different studies)
22 | 2661 (FKDQVILLNKHIDAY) [compound 2661] | Yes (more dominant epitopes are defined by being recognized by 3 or more donors/different studies)
23 | 2626 (RGHLRIAGHHLGRCD) [compound 2626] | Yes (more dominant epitopes are defined by being recognized by 3 or more donors/different studies)
24 | 2655 (YKHWPQIAQFAPSAS) [compound 2655] | Yes (more dominant epitopes are defined by being recognized by 3 or more donors/different studies)
25 | 2644 (NKDGIIWVATEGALN) [compound 2644] | Yes (more dominant epitopes are defined by being recognized by 3 or more donors/different studies)
